Laboratory results: patent publication US7351744B2, “Naphthalene derivatives as termite repellents and toxicants” (Board of Supervisors of Louisiana State University and …, priority 2003, dated 2008)

Tests used:
[1] = system: C. formosanus workers and soldiers; test: Topical application toxicity assay; assay type: in vivo, Coptotermes formosanus
Protocol: Dose-mortality data were analyzed using probit analysis as adapted for PC use (POLO-PC), which automatically corrected for control mortality using Abbott's transformation. See, e.g., R. M Russell et al., “POLO: a new computer program for probit analysis,” Bull. Entomol. Soc. Am., vol. 23, pp. 209-213 (1977); and LeOra Software, “POLO-PC, a user's guide to probit analysis or logit analysis” (1987). The LD50s of workers and soldiers from four tested colonies (y) were plotted against the average weight of tested termites (x) to establish a linear regression equation and conduct correlation analyses. Mean survival, food consumption and tunnel areas were compared among treatments using analysis of variance (ANOVA), followed by least significant difference procedures. See, SAS Institute, SAS/STAT User's Guide: version 8, SAS Institute, Inc., Cary, N.C. (1999). In two-choice assays using either treated filter paper or treated sand, the parameters measured in the two lateral sides of each treatment were compared using paired t-tests. All data were judged at α=0.05.
Acute toxicity of 2′-acetonaphthone was bioassayed using doses that ranged from 1.25 to 20 ug/termite. At stock solution of 2′-acetonaphthone was prepared ([…]). Dilutions were made by taking aliquots from the stock solution (62.5, 125, 250, 375, 500, 750, and 1000 μl), and adjusting each volume to 2 ml with acetone. A group of 20 workers or soldiers (from colonies BS, WB, E and CR) were placed in a Petri dish (6 cm×1.5 cm) and chilled on top of an ice brick (30.32 cm×17.78 cm×3.81 cm; IceBerg, Mid-Lands Chemical Company, Inc., Miami, Fla.) to slow their movement. Each termite was treated with a topical dose in 0.2 μl acetone to the dorsum of the mesothorax using a Hamilton PB 600 Repeating Dispenser equipped with a 10 μl syringe (Hamilton, Reno, Nev.). The experimental termites were treated with doses equivalent to 1.25, 2.50, 5.0, 7.5, 10.0, 15.0, and 20.0 μg/termite. Control termites were dosedwith only 0.2 μl acetone. Five replicates, each with 20 workers or 20 soldiers, were used for each dose and control. For each replicate, termites were maintained in a plastic container (5.5 cm×3.7 cm, Pioneer Pckaging Co., North Dixon, Ky.), each provided with a filter paper (Whatman #2, 55 mm diameter) wetted with 250 μl double distilled water (DDH20). The containers were covered with lids, and kept for 2 days at room temperature (26-28° C.). Daily mortality in each dish was recorded. Termites were considered dead if unable to right themselves when prodded with a fine paint brush.

[2] = system: C. formosanus workers; test: Treated sand when untreated sand is an alternative; assay type: in vivo, Coptotermes formosanus; conditions: for Survival (mean % ± SE) day 12: Colony WB; for Survival (mean % ± SE) day 12 / Survival (% ± SE) day 12: treated and untreated sand; for Survival (% ± SE) day 12: Colony E
Protocol: To further test the repellency of 2′-acetonaphthone, the three-chambered transparent plastic containers described in Example 5 were used. Sand was treated, allowed to dry from the solvent, and wetted with DDH2O as described in Example 5. Treated sand was placed in one of the side chambers, and the other side chamber received an equal amount of untreated sand. The concentrations of 2′-acetonaphthone used were 4.16, 8.33, 16.67, 33.33 and 66.67 mg/kg sand. Each concentration and the control had five replicate containers. Weighed balsa wood slices (0.159 cm×3.5 cm×6.0 cm each) were placed on the surface of both treated and untreated sand, and were wetted with 1 ml of DDH2O. Termites (200 workers and 20 soldiers) from colony WB were released in the middle chamber. On days 2, 3, 4 and 7, the bottom of each container was scanned, and tunnel areas measured as above. On day 12, the number of living termites in each container was recorded. The wood slices were then cleaned, dried and re-weighed to calculate food consumption.
The above experiment was repeated with new concentrations of 2′-acetonaphthone: 8.75, 17.5, 35, 70 and 140 mg/kg sand. Termites from colony E were tested, and the food source was changed to filter paper. Tunnels were scanned and measured on days 2, 5, 8 and 12. The data were analyzed as described in Example 5, and paired t-tests were used to compare tunneling and feeding activities between treated and untreated sides.

[3] = Longevity and volatility of the eleven chemicals; assay type: physicochemical; conditions: among the eleven chemicals tested

## CC(=O)c1ccc2ccccc2c1 [2′-acetonaphthone]
[1]; colony BS, 24 hours, Soldier
  LD50 (95% CL): 3.24 (2.27-4.24) μg/termite
  LD90 (95% CL): 13.60 (8.86-15.01) μg/termite
[1]; colony BS, 24 hours, Worker
  LD50 (95% CL): 2.21 (1.91-2.49) μg/termite
  LD90 (95% CL): 7.11 (6.14-8.58) μg/termite
[1]; colony BS, 48 hours, Soldier
  LD50 (95% CL): 2.02 (1.49-2.46) μg/termite
  LD90 (95% CL): 4.07 (3.37-5.37) μg/termite
[1]; colony BS, 48 hours, Worker
  LD50 (95% CL): 1.74 (1.49-1.96) μg/termite
  LD90 (95% CL): 4.19 (3.73-4.83) μg/termite
[1]; colony CR, 24 hours, Soldier
  LD50 (95% CL): 3.49 (2.49-4.51) μg/termite
  LD90 (95% CL): 8.09 (5.94-16.01) μg/termite
[1]; colony CR, 24 hours, Worker
  LD50 (95% CL): 2.93 (2.24-3.59) μg/termite
  LD90 (95% CL): 7.23 (5.59-11.34) μg/termite
[1]; colony CR, 48 hours, Soldier
  LD50 (95% CL): 2.02 (1.48-2.48) μg/termite
  LD90 (95% CL): 4.26 (3.45-5.92) μg/termite
[1]; colony CR, 48 hours, Worker
  LD50 (95% CL): 2.67 (1.87-3.35) μg/termite
  LD90 (95% CL): 6.09 (4.85-8.82) μg/termite
[1]; colony E, 24 hours, Soldier
  LD50 (95% CL): 5.12 (3.99-7.24) μg/termite
  LD90 (95% CL): 14.06 (9.51-19.26) μg/termite
[1]; colony E, 24 hours, Worker
  LD50 (95% CL): 7.24 (5.22-9.36) μg/termite
  LD90 (95% CL): 19.69 (14.02-25.58) μg/termite
[1]; colony E, 48 hours, Soldier
  LD50 (95% CL): 4.19 (3.14-6.20) μg/termite
  LD90 (95% CL): 12.32 (8.23-15.32) μg/termite
[1]; colony E, 48 hours, Worker
  LD50 (95% CL): 3.82 (2.68-5.83) μg/termite
  LD90 (95% CL): 11.77 (7.66-17.79) μg/termite
[1]; colony WB, 24 hours, Soldier
  LD50 (95% CL): 2.16 (0.56-6.23) μg/termite
  LD90 (95% CL): 5.48 (1.42-15.81) μg/termite
[1]; colony WB, 24 hours, Worker
  LD50 (95% CL): 1.75 (0.76-2.76) μg/termite
  LD90 (95% CL): 6.33 (3.71-12.46) μg/termite
[1]; colony WB, 48 hours, Soldier
  LD50 (95% CL): 2.17 (0.49-5.76) μg/termite
  LD90 (95% CL): 5.59 (1.23-14.49) μg/termite
[1]; colony WB, 48 hours, Worker
  LD50 (95% CL): 1.71 (0.42-1.95) μg/termite
  LD90 (95% CL): 3.09 (2.70-3.72) μg/termite
[1]; soldiers, range over the four colonies
  48 h-LD90: 4.07-12.32 μg/soldier
[2]; 4.16 mg/kg
  Survival (mean % ± SE) day 12: 48.75 ± 2.78 ab %
[2]; 8.33 mg/kg
  Survival (mean % ± SE) day 12: 36.00 ± 4.76 bc %
[2]; 8.75 mg/kg
  Survival (% ± SE) day 12: 61.60 ± 2.79 abc %
[2]; 16.67 mg/kg
  Survival (mean % ± SE) day 12: 35.25 ± 3.47 bc %
[2]; 17.5 mg/kg
  Survival (% ± SE) day 12: 67.20 ± 1.36 ab %
[2]; 33.33 mg/kg
  Survival (mean % ± SE) day 12: 17.33 ± 7.22 c %
[2]; 35.0 mg/kg
  Survival (% ± SE) day 12: 59.0 ± 7.72 bc %
[2]; 66.67 mg/kg
  Survival (mean % ± SE) day 12: 24.25 ± 11.99 c %
[2]; 70.0 mg/kg
  Survival (% ± SE) day 12: 53.0 ± 2.34 c %
[2]; 140.0 mg/kg
  Survival (% ± SE) day 12: 51.60 ± 3.97 c %
[2]; colony E
  concentration with significantly reduced survival after 12 days: ≥ 35.0 mg/kg sand
[2]; colony E, 12 days
  concentration significantly reducing overall tunneling (treated plus untreated sand): ≥ 35.0 mg/kg
  concentration with significant reduction in consumption of filter paper on treated sand: ≥ 8.75 mg/kg
[2]; colony E, only this treatment
  concentration with significantly less total food consumption: 140 mg/kg
[2]; colony E, up to 12 days
  concentration with significant reduction in tunneling activity in treated sand: ≥ 17.5 mg/kg
[2]; colony WB
  concentration with significantly reduced survival on day 12: ≥ 8.33 mg/kg
[2]; colony WB, 12 days
  concentration with significantly reduced consumption of wood slices on treated sand: ≥ 8.33 mg/kg
[2]; colony WB, days 2, 3, 4, 7
  concentration with significant difference in tunneling activity between untreated and treated sand: ≥ 16.67 mg/kg sand
[3]
  longevity: highest longevity
  volatility: lowest volatility
